Assays:
Assay in all cases: KINOMEscan
Type in all cases: binding
Settings in all cases: 1 uM
[1] = molecular target: ABL1 (Q252H)-nonphosphorylated (Homo sapiens (Human), UniProt P00519, Q252H)
[2] = molecular target: ABL1 (Q252H)-phosphorylated (Homo sapiens (Human), UniProt P00519, Q252H)
ACVR2B = ACVR2B (Homo sapiens (Human), UniProt Q13705)
AKT1 = AKT1 (Homo sapiens (Human), UniProt P31749)
ASK1 = ASK1 (Homo sapiens (Human), UniProt Q99683)
BMPR2 = BMPR2 (Homo sapiens (Human), UniProt Q13873)
CDK7 = CDK7 (Homo sapiens (Human), UniProt P50613)
CDKL2 = CDKL2 (Homo sapiens (Human), UniProt Q92772)
CDKL3 = CDKL3 (Homo sapiens (Human), UniProt Q8IVW4)
CIT = CIT (Homo sapiens (Human), UniProt O14578)
CTK = CTK (Homo sapiens (Human), UniProt P42679)
DDR2 = DDR2 (Homo sapiens (Human), UniProt Q16832)
DMPK2 = DMPK2 (Homo sapiens (Human), UniProt Q6DT37)
DRAK1 = DRAK1 (Homo sapiens (Human), UniProt Q9UEE5)
EGFR (L858R) = EGFR (L858R) (Homo sapiens (Human), UniProt P00533, L858R)
EGFR (L858R, T790M) = EGFR (L858R, T790M) (Homo sapiens (Human), UniProt P00533, L858R/T790M)
EPHA7 = EPHA7 (Homo sapiens (Human), UniProt Q15375)
ERK5 = ERK5 (Homo sapiens (Human), UniProt Q13164)
FGFR4 = FGFR4 (Homo sapiens (Human), UniProt P22455)
FLT4 = FLT4 (Homo sapiens (Human), UniProt P35916)
HIPK3 = HIPK3 (Homo sapiens (Human), UniProt Q9H422)
IRAK1 = IRAK1 (Homo sapiens (Human), UniProt P51617)
[3] = molecular target: JAK1 (JH1domain-catalytic) (Homo sapiens (Human), UniProt P23458)
JNK3 = JNK3 (Homo sapiens (Human), UniProt P53779)
KIT (V559D) = KIT (V559D) (Homo sapiens (Human), UniProt P10721, V559D)
MAK = MAK (Homo sapiens (Human), UniProt P20794)
MINK = MINK (Homo sapiens (Human), UniProt Q8N4C8)
PAK6 = PAK6 (Homo sapiens (Human), UniProt Q9NQU5)
PIP5K1C = PIP5K1C (Homo sapiens (Human), UniProt O60331)
PRKD2 = PRKD2 (Homo sapiens (Human), UniProt Q9BZL6)
PRKD3 = PRKD3 (Homo sapiens (Human), UniProt O94806)
RET = RET (Homo sapiens (Human), UniProt P07949)
RET (V804M) = RET (V804M) (Homo sapiens (Human), UniProt P07949, V804M)
RIPK1 = RIPK1 (Homo sapiens (Human), UniProt Q13546)
RIPK5 = RIPK5 (Homo sapiens (Human), UniProt Q6XUX3)
[4] = molecular target: RPS6KA5 (Kin.Dom.1-N-terminal) (Homo sapiens (Human), UniProt O75582)
[5] = molecular target: RSK3 (Kin.Dom.2-C-terminal) (Homo sapiens (Human), UniProt Q15349)
TEC = TEC (Homo sapiens (Human), UniProt P42680)
VRK2 = VRK2 (Homo sapiens (Human), UniProt Q86Y07)
YANK1 = YANK1 (Homo sapiens (Human), UniProt Q8WU08)

Chain of DDR2 (Q16832 22-855): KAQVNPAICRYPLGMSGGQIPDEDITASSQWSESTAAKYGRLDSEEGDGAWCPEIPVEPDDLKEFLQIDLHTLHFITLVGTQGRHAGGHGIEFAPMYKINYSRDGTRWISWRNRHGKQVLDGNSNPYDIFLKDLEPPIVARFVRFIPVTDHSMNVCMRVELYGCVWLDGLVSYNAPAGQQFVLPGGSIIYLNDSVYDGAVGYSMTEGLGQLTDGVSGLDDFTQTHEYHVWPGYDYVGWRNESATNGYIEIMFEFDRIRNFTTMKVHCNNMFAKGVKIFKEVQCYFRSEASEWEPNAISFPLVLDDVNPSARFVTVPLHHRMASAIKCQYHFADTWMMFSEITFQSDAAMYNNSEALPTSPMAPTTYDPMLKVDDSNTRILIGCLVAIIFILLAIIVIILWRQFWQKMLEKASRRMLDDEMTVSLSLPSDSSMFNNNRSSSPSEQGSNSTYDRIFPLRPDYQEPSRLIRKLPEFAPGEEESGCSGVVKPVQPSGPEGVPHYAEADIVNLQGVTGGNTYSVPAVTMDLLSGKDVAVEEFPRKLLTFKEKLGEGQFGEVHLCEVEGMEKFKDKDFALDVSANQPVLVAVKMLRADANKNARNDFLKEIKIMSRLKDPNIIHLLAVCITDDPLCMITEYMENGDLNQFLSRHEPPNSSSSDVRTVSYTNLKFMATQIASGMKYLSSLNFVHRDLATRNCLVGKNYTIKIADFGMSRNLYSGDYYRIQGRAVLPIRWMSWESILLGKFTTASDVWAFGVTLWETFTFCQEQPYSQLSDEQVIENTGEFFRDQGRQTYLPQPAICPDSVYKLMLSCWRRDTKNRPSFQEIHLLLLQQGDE
Chain of RIPK1 (Q13546 whole entry): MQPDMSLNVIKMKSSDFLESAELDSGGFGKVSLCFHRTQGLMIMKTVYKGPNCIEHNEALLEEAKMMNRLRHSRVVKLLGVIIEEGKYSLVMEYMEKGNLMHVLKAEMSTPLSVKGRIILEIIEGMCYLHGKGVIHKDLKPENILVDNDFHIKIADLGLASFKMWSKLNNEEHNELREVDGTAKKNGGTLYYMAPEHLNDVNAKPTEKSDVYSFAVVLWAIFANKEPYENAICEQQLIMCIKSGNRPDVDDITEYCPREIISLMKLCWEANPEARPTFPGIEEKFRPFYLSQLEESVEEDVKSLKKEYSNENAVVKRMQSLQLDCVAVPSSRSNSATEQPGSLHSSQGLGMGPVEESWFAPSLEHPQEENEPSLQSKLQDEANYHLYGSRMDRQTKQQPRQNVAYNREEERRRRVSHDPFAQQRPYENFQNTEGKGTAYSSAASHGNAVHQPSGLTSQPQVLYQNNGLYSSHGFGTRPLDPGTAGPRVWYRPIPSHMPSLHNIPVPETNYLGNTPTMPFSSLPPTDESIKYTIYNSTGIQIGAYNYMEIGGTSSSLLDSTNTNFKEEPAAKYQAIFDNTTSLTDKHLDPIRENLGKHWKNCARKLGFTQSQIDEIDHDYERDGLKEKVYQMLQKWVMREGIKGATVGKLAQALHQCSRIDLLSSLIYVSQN
Chain of TEC (P42680 whole entry): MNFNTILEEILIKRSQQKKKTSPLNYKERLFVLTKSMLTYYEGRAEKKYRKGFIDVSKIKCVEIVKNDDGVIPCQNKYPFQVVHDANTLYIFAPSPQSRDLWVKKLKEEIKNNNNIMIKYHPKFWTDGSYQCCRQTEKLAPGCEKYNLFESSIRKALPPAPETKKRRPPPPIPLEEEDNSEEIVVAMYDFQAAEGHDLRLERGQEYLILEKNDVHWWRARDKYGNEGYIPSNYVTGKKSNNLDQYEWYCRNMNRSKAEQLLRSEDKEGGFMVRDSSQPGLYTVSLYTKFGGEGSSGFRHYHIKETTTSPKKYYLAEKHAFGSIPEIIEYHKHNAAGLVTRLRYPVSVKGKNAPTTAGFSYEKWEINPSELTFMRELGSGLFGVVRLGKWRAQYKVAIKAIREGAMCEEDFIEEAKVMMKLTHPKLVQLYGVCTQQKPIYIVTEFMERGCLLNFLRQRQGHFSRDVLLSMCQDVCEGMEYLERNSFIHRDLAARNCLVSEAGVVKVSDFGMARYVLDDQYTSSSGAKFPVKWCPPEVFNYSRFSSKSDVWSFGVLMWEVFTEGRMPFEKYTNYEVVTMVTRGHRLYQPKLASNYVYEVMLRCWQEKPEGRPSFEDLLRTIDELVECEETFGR
Chain of JNK3 (P53779 whole entry): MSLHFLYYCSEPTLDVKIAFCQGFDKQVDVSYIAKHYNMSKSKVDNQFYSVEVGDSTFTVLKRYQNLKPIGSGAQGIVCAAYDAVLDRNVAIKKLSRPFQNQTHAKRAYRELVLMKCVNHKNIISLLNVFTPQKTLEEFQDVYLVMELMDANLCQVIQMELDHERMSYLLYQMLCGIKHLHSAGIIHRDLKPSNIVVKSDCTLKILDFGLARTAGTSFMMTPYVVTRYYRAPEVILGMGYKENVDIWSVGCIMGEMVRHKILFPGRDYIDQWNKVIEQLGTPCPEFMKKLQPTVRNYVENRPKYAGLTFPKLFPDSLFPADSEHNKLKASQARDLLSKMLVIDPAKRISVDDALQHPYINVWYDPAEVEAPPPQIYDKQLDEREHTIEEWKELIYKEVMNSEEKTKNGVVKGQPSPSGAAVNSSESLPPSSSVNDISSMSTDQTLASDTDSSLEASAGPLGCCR
Chain of RIPK5 (Q6XUX3 whole entry): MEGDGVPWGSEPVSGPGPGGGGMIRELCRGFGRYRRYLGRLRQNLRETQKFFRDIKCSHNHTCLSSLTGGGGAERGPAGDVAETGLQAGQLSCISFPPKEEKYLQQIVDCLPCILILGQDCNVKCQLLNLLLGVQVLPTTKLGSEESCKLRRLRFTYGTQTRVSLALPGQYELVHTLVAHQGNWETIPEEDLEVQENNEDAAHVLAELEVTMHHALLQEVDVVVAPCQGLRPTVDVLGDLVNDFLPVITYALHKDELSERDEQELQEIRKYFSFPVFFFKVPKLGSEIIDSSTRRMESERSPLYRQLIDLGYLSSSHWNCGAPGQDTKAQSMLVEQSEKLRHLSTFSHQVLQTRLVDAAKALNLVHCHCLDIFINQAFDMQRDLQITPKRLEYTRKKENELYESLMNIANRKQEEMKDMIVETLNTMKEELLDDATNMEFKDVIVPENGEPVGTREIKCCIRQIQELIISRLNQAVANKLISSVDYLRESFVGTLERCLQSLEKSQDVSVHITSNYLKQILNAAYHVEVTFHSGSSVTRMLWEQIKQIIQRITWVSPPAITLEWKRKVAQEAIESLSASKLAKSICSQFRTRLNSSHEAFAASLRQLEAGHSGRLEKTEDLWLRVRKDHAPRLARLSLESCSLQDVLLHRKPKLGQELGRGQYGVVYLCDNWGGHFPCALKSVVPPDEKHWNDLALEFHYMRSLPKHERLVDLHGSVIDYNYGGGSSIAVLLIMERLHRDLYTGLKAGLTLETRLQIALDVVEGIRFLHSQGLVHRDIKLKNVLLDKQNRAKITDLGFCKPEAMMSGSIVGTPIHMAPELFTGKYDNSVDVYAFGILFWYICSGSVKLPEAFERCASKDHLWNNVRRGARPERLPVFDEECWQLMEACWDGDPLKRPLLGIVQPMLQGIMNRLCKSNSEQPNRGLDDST
Chain of CDK7 (P50613 whole entry): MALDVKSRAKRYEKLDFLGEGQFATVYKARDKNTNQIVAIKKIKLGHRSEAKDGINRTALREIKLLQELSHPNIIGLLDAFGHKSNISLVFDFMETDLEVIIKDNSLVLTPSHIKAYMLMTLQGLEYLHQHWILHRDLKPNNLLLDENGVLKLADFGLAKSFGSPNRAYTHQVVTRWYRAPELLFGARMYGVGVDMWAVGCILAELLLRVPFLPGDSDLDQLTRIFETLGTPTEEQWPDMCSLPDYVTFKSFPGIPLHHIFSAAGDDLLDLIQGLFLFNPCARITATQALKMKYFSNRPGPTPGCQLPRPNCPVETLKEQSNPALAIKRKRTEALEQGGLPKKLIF
Chain of PRKD3 (O94806 whole entry): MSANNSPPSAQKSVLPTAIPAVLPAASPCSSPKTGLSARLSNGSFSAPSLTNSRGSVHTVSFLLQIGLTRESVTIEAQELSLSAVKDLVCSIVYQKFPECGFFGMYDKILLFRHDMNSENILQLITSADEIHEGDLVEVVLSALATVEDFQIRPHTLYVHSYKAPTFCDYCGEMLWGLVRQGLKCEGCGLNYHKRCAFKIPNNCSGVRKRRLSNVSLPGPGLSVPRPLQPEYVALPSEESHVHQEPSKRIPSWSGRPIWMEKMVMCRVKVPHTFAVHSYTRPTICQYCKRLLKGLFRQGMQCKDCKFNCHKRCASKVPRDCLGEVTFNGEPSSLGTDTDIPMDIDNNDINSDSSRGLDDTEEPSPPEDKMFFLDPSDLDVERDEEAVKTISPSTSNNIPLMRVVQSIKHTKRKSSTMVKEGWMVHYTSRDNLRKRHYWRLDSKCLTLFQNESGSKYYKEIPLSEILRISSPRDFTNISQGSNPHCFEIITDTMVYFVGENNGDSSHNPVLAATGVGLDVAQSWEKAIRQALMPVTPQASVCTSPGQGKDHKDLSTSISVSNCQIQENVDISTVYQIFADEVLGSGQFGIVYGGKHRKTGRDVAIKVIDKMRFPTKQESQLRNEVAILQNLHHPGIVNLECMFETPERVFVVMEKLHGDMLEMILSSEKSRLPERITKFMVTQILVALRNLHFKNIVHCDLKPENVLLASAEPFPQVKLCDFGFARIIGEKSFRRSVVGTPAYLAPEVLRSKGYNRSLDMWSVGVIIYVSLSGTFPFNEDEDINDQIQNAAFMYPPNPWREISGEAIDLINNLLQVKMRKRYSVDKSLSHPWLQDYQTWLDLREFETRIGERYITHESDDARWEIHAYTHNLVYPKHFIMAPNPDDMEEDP
Chain of JAK1 (JH1domain-catalytic) (P23458 875-1153): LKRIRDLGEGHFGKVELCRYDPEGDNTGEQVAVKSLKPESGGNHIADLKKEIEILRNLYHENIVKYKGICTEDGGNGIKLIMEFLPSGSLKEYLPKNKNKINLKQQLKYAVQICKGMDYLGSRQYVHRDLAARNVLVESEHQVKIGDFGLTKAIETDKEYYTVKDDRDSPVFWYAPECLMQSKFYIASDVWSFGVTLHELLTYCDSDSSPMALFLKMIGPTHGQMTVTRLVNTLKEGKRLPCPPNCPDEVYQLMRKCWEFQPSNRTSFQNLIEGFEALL

Structure (SMILES): COc1ccc(N2C(=O)N(c3c(C)cccc3C)Cc3cnc(Nc4ccc(N5CCN(C)CC5)cc4)nc32)c(OC)c1 [HG-11-136-01]
- KINOMEscan ABL1 (Q252H)-nonphosphorylated [1]: 0
- KINOMEscan ABL1 (Q252H)-phosphorylated [2]: 0.25
- KINOMEscan ACVR2B (ACVR2B): 3.2
- KINOMEscan AKT1 (AKT1): 100
- KINOMEscan ASK1 (ASK1): 100
- KINOMEscan BMPR2 (BMPR2): 77
- KINOMEscan CDK7 (CDK7): 60
- KINOMEscan CDKL2 (CDKL2): 14
- KINOMEscan CDKL3 (CDKL3): 58
- KINOMEscan CIT (CIT): 58
- KINOMEscan CTK (CTK): 33
- KINOMEscan DDR2 (DDR2): 1.6
- KINOMEscan DMPK2 (DMPK2): 1.6
- KINOMEscan DRAK1 (DRAK1): 96
- KINOMEscan EGFR (L858R) (EGFR (L858R)): 0.1
- KINOMEscan EGFR (L858R, T790M) (EGFR (L858R, T790M)): 1.7
- KINOMEscan EPHA7 (EPHA7): 72
- KINOMEscan ERK5 (ERK5): 84
- KINOMEscan FGFR4 (FGFR4): 2
- KINOMEscan FLT4 (FLT4): 6.6
- KINOMEscan HIPK3 (HIPK3): 2.6
- KINOMEscan IRAK1 (IRAK1): 4.4
- KINOMEscan JAK1 (JH1domain-catalytic) [3]: 57
- KINOMEscan JNK3 (JNK3): 32
- KINOMEscan KIT (V559D) (KIT (V559D)): 0
- KINOMEscan MAK (MAK): 100
- KINOMEscan MINK (MINK): 2.8
- KINOMEscan PAK6 (PAK6): 37
- KINOMEscan PIP5K1C (PIP5K1C): 70
- KINOMEscan PRKD2 (PRKD2): 3.6
- KINOMEscan PRKD3 (PRKD3): 5.4
- KINOMEscan RET (RET): 0
- KINOMEscan RET (V804M) (RET (V804M)): 7.6
- KINOMEscan RIPK1 (RIPK1): 35
- KINOMEscan RIPK5 (RIPK5): 2.8
- KINOMEscan RPS6KA5 (Kin.Dom.1-N-terminal) [4]: 100
- KINOMEscan RSK3 (Kin.Dom.2-C-terminal) [5]: 67
- KINOMEscan TEC (TEC): 2.6
- KINOMEscan VRK2 (VRK2): 86
- KINOMEscan YANK1 (YANK1): 0.2
